These results are taken from patent US8507472B2 (priority 2010, dated 2013).

Assay [1] concerns Fusarium graminearum. It counts as in vivo. The settings on record: in vivo.
For the next assay, the system named is Leptosphaeria nodorum. Kind of assay: Leptosphaeria nodorum test (wheat)/protective. It is filed as in vivo. The settings on record: in vivo. The method in brief: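 Young wheat plants were sprayed protectively, then inoculated 1 day later with L. nodorum spores and held 48 h at 100% humidity and 22° C. They were then kept in a greenhouse at 90% humidity and 22° C. Efficacy was scored 7-9 days post-inoculation, where 0% equals control and 100% means no infection.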

The next assay concerns Venturia inaequalis. Kind of assay: Venturia test (apple)/protective. It is filed as in vivo. The settings on record: 100 ppm active compound, protective, evaluation 10 days after inoculation. The method in brief: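 Young apple plants sprayed protectively with compound (in acetone/dimethylacetamide with alkylaryl polyglycol ether, diluted in water) at the stated rate, then inoculated with V. inaequalis conidia once dry. Held 1 day at ~20° C, 100% humidity, then greenhouse ~21° C, ~90% humidity; efficacy scored 10 days post-inoculation (0% = control, 100% = no infection).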

Assay [2] has as its system Fusarium nivale (var. majus). Kind of assay: Fusarium nivale (var. majus) test (wheat)/protective. The settings on record: 1000 ppm active compound, protective, evaluation 5 days after inoculation. It counts as in vivo. The procedure: (§1) Solvent: 49 parts by weight of N,N-dimethylacetamide
(§2) Emulsifier: 1 part by weight of alkylaryl polyglycol ether
(§3) To produce a suitable preparation of active compound, 1 part by weight of active compound is mixed with the stated amounts of solvent and emulsifier, and the concentrate is diluted with water to the desired concentration.
(§4) To test for protective activity, young plants are sprayed with the active compound preparation at the stated application rate.
After the spray coating has dried on, the plants are sprayed with spores of a spore suspension of Fusarium nivale (var. majus).
The plants are placed in a greenhouse chamber under a translucent incubation hood at 10° C. and 100% relative atmospheric humidity.
Evaluation is carried out 5 days after the inoculation. 0% means an efficacy which corresponds to that of the control, whereas an efficacy of 100% means that no infection is observed.

The subject of a further assay is Botrytis cinerea. Kind of assay: Botrytis test (bean)/protective. It counts as in vivo. The settings on record: 100 ppm active compound, protective, evaluation 2 days after inoculation. The gist of the method: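 Young bean plants sprayed at the stated rate with compound in acetone/dimethylacetamide plus alkylaryl polyglycol ether emulsifier, diluted in water. Once dry, each leaf got 2 agar pieces colonized by Botrytis cinerea; kept dark at about 20° C., 100% humidity. Infected area scored after 2 days; 0% = control, 100% = no infection.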

A further assay concerns Pyrenophora teres. Kind of assay: Pyrenophora teres test (barley)/protective. The conditions noted are these: in vivo. It counts as in vivo. The method in brief:
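Protective test: young barley plants sprayed at the stated rate with compound in DMF/alkylaryl polyglycol ether diluted with water, inoculated with P. teres spores 1 day later, kept 48 h at 100% rel. humidity and 22° C., then greenhouse at 80% and 20° C. Efficacy scored 7-9 days post-inoculation (0% = control, 100% = no infection).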

Assay [3] relates to Fusarium graminearum. Kind of assay: microbe, parasite or virus in culture. The conditions noted are these: 50 μM. It counts as cell-based.
The subject of the next assay is DON/AcDON production. Kind of assay: microbe, parasite or virus in culture. It counts as cell-based, Fusarium graminearum. The settings on record: 7 days at 28° C.
The next assay has as its system Uromyces appendiculatus. The assay can be described thus: Uromyces test (bean)/protective. It is filed as in vivo. The conditions noted are these: in vivo. The method in brief: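 Young bean plants sprayed with compound formulated in acetone/dimethylacetamide with emulsifier, inoculated with Uromyces appendiculatus spores after drying, held 1 day at ~20 °C and 100% humidity, then greenhouse ~21 °C, ~90% humidity. Efficacy scored 10 days post-inoculation, 0% = untreated control, 100% = no infection.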

A further assay has as its system Sphaerotheca fuliginea. The assay can be described thus: Sphaerotheca test (cucumber)/protective. It is filed as in vivo. The settings on record: in vivo. The gist of the method:
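Protective test: young cucumber plants sprayed with compound (DMF/alkylaryl polyglycol ether concentrate diluted in water) at the stated rate, inoculated with S. fuliginea spores 1 day later, then kept in greenhouse at 23 °C, 70% RH. Efficacy scored 7 days post-inoculation; 0% equals untreated control, 100% means no infection.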

The test system of another assay is Puccinia triticina. The assay can be described thus: Puccinia triticina test (wheat)/protective. It is filed as in vivo. The conditions noted are these: in vivo. The procedure:
Solvent: 49 parts by weight of […]
as §2, §3, §4
After the spray coating has dried on, the plants are sprayed with spores of a spore suspension of Puccinia triticina. The plants remain in an incubation cabin at 20° C. and 100% relative atmospheric humidity for 48 hours.
The plants are placed in greenhouse at a temperature of about 20° C. and a relative atmospheric humidity of about 80%.
Evaluation is carried out 8 days after the inoculation. 0% means an efficacy which corresponds to that of the control, whereas an efficacy of 100% means that no infection is observed.

The subject of another assay is Septoria tritici. Kind of assay: Septoria tritici test (wheat)/protective. The conditions noted are these: in vivo. It is filed as in vivo. As to the method: as §1, §2
To produce a suitable preparation of active compound, 1 part by weight of active compound is mixed with the stated amount of solvent and emulsifier, and the concentrate is diluted with water to the desired concentration.
To test for protective activity, young plants are sprayed with the active compound preparation at the stated application rate. After the spray coating has dried on, the plants are sprayed with a spore suspension of Septoria tritici. The plants remain in an incubation cabin at 20° C. and 100% relative atmospheric humidity for 48 hours. The plants are then placed under a translucent hood at 15° C. and 100% relative atmospheric humidity for a further 60 hours.
The plants are placed in a greenhouse at a temperature of about 15° C. and a relative atmospheric humidity of 80%.
Evaluation is carried out 21 days after the inoculation. 0% means an efficacy which corresponds to that of the control, whereas an efficacy of 100% means that no infection is observed.

Another assay concerns Phytophthora infestans. It is filed as in vivo. The settings on record: in vivo.
In the next assay the test system is Alternaria solani. The assay can be described thus: Alternaria test (tomato)/protective. It is filed as in vivo. The conditions noted are these: in vivo. The gist of the method:
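Young tomato plants were sprayed with compound (DMF/emulsifier formulation diluted in water) and inoculated with A. solani spores 1 day later. Plants were kept 24 h at 100% RH and 22 °C, then at 96% RH and 20 °C. Efficacy was scored 7 days post-inoculation, where 0% equals untreated control and 100% means no infection.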

Consider `CC(=O)Nc1cc(-c2c(-c3ccc(F)cc3)nn3c2CCCC3)ccn1` [Example 15], for which the efficacy in % amounted to 100% in the assay with Fusarium graminearum [1]; 95% in the assay on Leptosphaeria nodorum; 94% with Venturia inaequalis; 100% in assay [2]; 82% in the assay with Botrytis cinerea; 100% in the assay on Pyrenophora teres. In addition, the efficacy in % is recorded as 94% in the assay with Uromyces appendiculatus; 98% in the assay on Sphaerotheca fuliginea; 94% with Puccinia triticina; 100% in the assay with Septoria tritici; 95% in the assay with Phytophthora infestans; 100% in the assay on Alternaria solani. Also, in the assay with Fusarium graminearum [3], the “% inhibition of the fungal growth of Fusarium graminearum at 50 μM” value (from here on “% inhibition of the fungal growth … at 50 μM”) is 88%. Besides, in the assay on DON/AcDON production, the “% inhibition of DON/AcDON at 50 μM” value is 99%.

Consider `COCC(=O)Nc1cc(-c2c(-c3ccc(F)cc3)nn3c2CCCC3)ccn1` [Example 22], for which the efficacy in % in the assay on Fusarium graminearum [1] was determined as 100%; in the assay with Leptosphaeria nodorum it was 80%; with Venturia inaequalis it was 76%; in [2], 86%; with Botrytis cinerea it was 89%; in the assay on Pyrenophora teres, 95%. The efficacy in % in the assay on Uromyces appendiculatus came to 94%; with Sphaerotheca fuliginea, 90%; in the assay on Puccinia triticina it was 75%; in the assay with Septoria tritici, 86%; in the assay with Phytophthora infestans, 90%; in the assay with Alternaria solani, 95%. Moreover, the “% inhibition of the fungal growth … at 50 μM” value with Fusarium graminearum [3] came to 97%. Also, the “% inhibition of DON/AcDON at 50 μM” value in the assay with DON/AcDON production was found to be 100%.

Turning to `C[C@H](O)C(=O)Nc1cc(-c2c(-c3ccc(F)cc3)nn3c2CCCC3)ccn1` [Example 24], the efficacy in % with Fusarium graminearum [1] is recorded as 100%; in the assay with Leptosphaeria nodorum, 90%; in the assay on Venturia inaequalis, 83%; in [2], 100%; in the assay on Botrytis cinerea, 76%; with Pyrenophora teres it was 95%. Moreover, the efficacy in % was 91% with Uromyces appendiculatus; 94% in the assay with Sphaerotheca fuliginea; 100% in the assay with Puccinia triticina; 100% with Septoria tritici; 90% with Phytophthora infestans; 95% in the assay with Alternaria solani. In the assay with Fusarium graminearum [3], the “% inhibition of the fungal growth … at 50 μM” value is recorded as 74%. Further, in the assay on DON/AcDON production, the “% inhibition of DON/AcDON at 50 μM” value was 99%.

With `O=C(Nc1cc(-c2c(-c3ccsc3)nn3c2CCCC3)ccn1)C1CC1` [Example 65], the efficacy in % with Fusarium graminearum [1] came to 83%; in the assay with Leptosphaeria nodorum, 94%; in the assay on Venturia inaequalis it was 96%; in [2], 100%; with Botrytis cinerea, 97%; in the assay with Pyrenophora teres, 95%. For the same compound, the efficacy in % with Uromyces appendiculatus turned out to be 95%; in the assay on Sphaerotheca fuliginea, 100%; in the assay on Puccinia triticina, 86%; with Septoria tritici, 90%; in the assay on Phytophthora infestans, 90%; with Alternaria solani, 100%. The “% inhibition of the fungal growth … at 50 μM” value in the assay on Fusarium graminearum [3] is 100%. In the assay on DON/AcDON production, the “% inhibition of DON/AcDON at 50 μM” value was determined as 100%.

Consider `CCC(=O)Nc1cc(-c2c(-c3ccccc3)nn3c2CCCC3)ccn1` [Example 8], for which the efficacy in % in the assay on Fusarium graminearum [1] was found to be 88%; in the assay with Leptosphaeria nodorum, 95%; in the assay on Venturia inaequalis it was 96%; in [2], 100%; in the assay on Botrytis cinerea it was 99%; with Pyrenophora teres, 100%. In addition, the efficacy in % is 100% in the assay with Uromyces appendiculatus; 99% with Sphaerotheca fuliginea; 100% in the assay on Puccinia triticina; 100% in the assay with Septoria tritici; 95% with Phytophthora infestans; 100% in the assay on Alternaria solani. In addition, the “% inhibition of the fungal growth … at 50 μM” value with Fusarium graminearum [3] amounted to 100%. For the same compound, the “% inhibition of DON/AcDON at 50 μM” value with DON/AcDON production amounted to 99%.

With `CC(C)C(=O)Nc1cc(-c2c(-c3ccsc3)nn3c2CCCC3)ccn1` [Example 63], the efficacy in % is reported as 83% in the assay on Fusarium graminearum [1]; 94% in the assay with Leptosphaeria nodorum; 99% in the assay on Venturia inaequalis; 83% in assay [2]; 94% with Botrytis cinerea; 95% in the assay with Pyrenophora teres. Besides, the efficacy in % in the assay on Uromyces appendiculatus was found to be 75%; in the assay with Sphaerotheca fuliginea it was 93%; with Puccinia triticina, 86%; in the assay with Septoria tritici it was 100%; in the assay on Phytophthora infestans, 95%; in the assay with Alternaria solani, 100%. In addition, the “% inhibition of the fungal growth … at 50 μM” value with Fusarium graminearum [3] was determined as 100%. In the assay with DON/AcDON production, the “% inhibition of DON/AcDON at 50 μM” value is 100%.

As to `COCC(=O)Nc1cc(-c2c(-c3ccccc3)nn3c2CCCC3)ccn1` [Example 23], the efficacy in % in the assay with Fusarium graminearum [1] amounted to 88%; with Leptosphaeria nodorum, 90%; with Venturia inaequalis, 98%; in assay [2], 86%; in the assay on Botrytis cinerea it was 100%; with Pyrenophora teres it was 95%. The efficacy in % stood at 95% in the assay on Uromyces appendiculatus; 89% in the assay on Sphaerotheca fuliginea; 75% in the assay on Puccinia triticina; 86% with Septoria tritici; 80% in the assay with Phytophthora infestans; 95% in the assay on Alternaria solani. The “% inhibition of the fungal growth … at 50 μM” value in the assay on Fusarium graminearum [3] was found to be 97%. Also, in the assay with DON/AcDON production, the “% inhibition of DON/AcDON at 50 μM” value amounted to 100%.
